From patent US11220494B2, “Cyclin dependent kinase inhibitors” (Pfizer Inc., priority 2018, dated 2022)

What was measured:
CDK4/Cyclin D1 = CDK4/Cyclin D1 (Homo sapiens (Human), UniProt P11802); assay: CDK4/Cyclin D1 mobility shift assay; format: biochemical; details: activated CDK4/Cyclin D1, 3.5 mM ATP, fit to Morrison equation; read-out: CDK4D1 Ki
Method: Biological Assays and Data CDK4/Cyclin D1 Mobility Shift Assay
(§1) The purpose CDK4/Cyclin D1 assay is to evaluate the inhibition (% inhibition, Kiapp and Ki values) in the presence of small molecule inhibitors by using a fluorescence based microfluidic mobility shift assay. […] The mobility shift assay electrophoretically separates the fluorescently labeled peptides (substrate and phosphorylated product) following the kinase reaction. Both substrate and product are measured and the ratio of these values is used to generate % Conversion of substrate to product by the LabChip EZ Reader.
The reaction was stopped after 195 minutes by the addition of 50 μL of 30 mM EDTA. Ki determinations were made from a plot of the fractional velocity as a function of inhibitor concentration fit to the Morrison equation with the enzyme concentration as a variable.
For CDK4 and CDK6 mobility shift assays, see also Morrison, J. F. (1969) Kinetics of the reversible inhibition of enzyme-catalysed reactions by tight-binding inhibitors, Biochimica et biophysica acta 185, 269-286; and Murphy, D. J. (2004) Determination of accurate KI values for tight-binding enzyme inhibitors: an in silico study of experimental error and assay design, Analytical biochemistry 327, 61-67.

CDK6/Cyclin D3 = CDK6/Cyclin D3 (Homo sapiens (Human), UniProt Q00534); assay: CDK6/Cyclin D3 mobility shift assay; format: biochemical; details: activated CDK6/Cyclin D3, 3.5 mM ATP, fit to Morrison equation; read-out: CDK6_D3 Ki
Sequence of CDK6/Cyclin D3 (Q00534 whole entry): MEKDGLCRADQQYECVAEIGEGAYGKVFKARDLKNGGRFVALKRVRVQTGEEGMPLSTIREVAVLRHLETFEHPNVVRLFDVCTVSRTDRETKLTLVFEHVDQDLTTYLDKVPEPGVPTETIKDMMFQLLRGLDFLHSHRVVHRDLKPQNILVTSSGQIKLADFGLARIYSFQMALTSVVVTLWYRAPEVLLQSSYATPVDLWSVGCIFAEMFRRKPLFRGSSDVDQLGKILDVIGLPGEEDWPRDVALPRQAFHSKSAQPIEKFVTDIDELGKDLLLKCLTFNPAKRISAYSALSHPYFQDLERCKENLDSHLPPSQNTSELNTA
Sequence of CDK6/Cyclin D3 (P30281 whole entry partner): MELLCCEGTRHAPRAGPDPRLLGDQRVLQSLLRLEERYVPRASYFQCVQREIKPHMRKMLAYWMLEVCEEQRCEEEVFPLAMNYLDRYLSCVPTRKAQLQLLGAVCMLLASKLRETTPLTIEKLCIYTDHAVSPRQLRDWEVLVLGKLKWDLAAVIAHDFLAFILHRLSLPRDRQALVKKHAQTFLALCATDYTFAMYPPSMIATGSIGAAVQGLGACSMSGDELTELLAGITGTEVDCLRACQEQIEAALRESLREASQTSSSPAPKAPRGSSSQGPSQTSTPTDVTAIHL
Method: CDK6/Cyclin D3 Mobility Shift Assay
as §1, with “of the CDK6/Cyclin D3” for “CDK4/Cyclin D1”, “conversion” for “Conversion”
The reaction was stopped after 95 minutes by the addition of 50 μL of 30 mM EDTA. Ki determinations were made from a plot of the fractional velocity as a function of inhibitor concentration fit to the Morrison equation with the enzyme concentration as a variable.

CDK4 = CDK4 (Homo sapiens (Human), UniProt P11802); assay: Phospho-Serine 795 Rb ELISA assay in JEKO-1 cells; format: cell-based; details: treated overnight, phospho-Ser795 Rb, read-out: CDK4 pRB S795 ELISA JEKO-1 cells IC50
Sequence of CDK4 (P11802 2-303): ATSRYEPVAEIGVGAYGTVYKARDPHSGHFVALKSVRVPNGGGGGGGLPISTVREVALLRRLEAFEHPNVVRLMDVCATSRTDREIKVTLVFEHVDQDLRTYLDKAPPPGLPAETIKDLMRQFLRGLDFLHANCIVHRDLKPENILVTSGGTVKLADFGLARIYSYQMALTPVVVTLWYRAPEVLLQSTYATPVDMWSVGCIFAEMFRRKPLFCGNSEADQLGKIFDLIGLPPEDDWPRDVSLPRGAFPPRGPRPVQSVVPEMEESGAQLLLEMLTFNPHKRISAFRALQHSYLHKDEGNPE
Sequence of CDK4 (P24385 whole entry partner): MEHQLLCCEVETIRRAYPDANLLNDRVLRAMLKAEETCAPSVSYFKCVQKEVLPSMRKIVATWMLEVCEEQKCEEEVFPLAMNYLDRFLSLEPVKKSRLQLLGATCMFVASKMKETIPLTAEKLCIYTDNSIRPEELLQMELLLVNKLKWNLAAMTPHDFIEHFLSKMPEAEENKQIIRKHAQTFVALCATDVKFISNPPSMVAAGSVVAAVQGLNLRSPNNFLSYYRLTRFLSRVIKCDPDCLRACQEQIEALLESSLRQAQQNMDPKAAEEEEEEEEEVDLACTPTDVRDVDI
Method: Phospho-Serine 795 Rb ELISA Assays
(§2) JEKO-1 or MV4-11 cells were seeded at 15,000 or 20,000 cells per well, respectively, in 100 μL growth media and allowed to incubate at 37° C. with 5% CO2 overnight. The following day, compounds were serially diluted from a 10 mM top dose for an 11-point 3-fold dilution curve in DMSO. Compounds were intermediately diluted 1:200 into growth media prior to diluting 1:5 on cells for final concentration 10 μM to 0.1 nM in 0.1% DMSO on cells. JEKO-1 and MV4-11 cells were treated were treated overnight, at 37° C. with 5% CO2. Cells were lysed in 100 μL/well CST lysis buffer on ice and transferred to pre-coated and blocked anti-phospho-Ser795 Rb ELISA plates for overnight incubation at 4° C. Plates were washed to remove residual, unbound cellular proteins and total Rb detection antibody added for 90 minutes at 37° C. Following wash to remove unbound total Rb antibody, the HRP tagged antibody was allowed to bind for 30 minutes at 37° C. Following wash to remove unbound HRP antibody, Glo Substrate Reagent was added and incubated protected from light for 5 to 10 minutes. Plates were read in luminescence mode and IC50 values calculated.

CDK6 = CDK6 (Homo sapiens (Human), UniProt Q00534); assay: Phospho-Serine 795 Rb ELISA assay in MV4-11 cells; format: cell-based; details: treated overnight, phospho-Ser795 Rb, read-out: CDK6 pRB S795 ELISA MV4-11 cells IC50
Sequence of CDK6 (Q00534 whole entry): as the sequence (Q00534 whole entry) above
Sequence of CDK6 (P30281 whole entry partner): as the sequence (P30281 whole entry partner) above
Method: as §2

Sequence of CDK4/Cyclin D1 (P11802 whole entry): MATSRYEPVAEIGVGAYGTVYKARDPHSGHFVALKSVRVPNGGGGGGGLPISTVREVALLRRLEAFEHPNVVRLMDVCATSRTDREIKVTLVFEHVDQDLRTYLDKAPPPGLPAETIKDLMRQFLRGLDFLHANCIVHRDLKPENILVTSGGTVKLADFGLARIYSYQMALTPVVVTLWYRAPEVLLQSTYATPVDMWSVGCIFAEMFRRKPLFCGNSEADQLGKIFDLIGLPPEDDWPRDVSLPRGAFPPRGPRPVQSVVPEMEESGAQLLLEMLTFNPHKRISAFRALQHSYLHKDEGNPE
Sequence of CDK4/Cyclin D1 (P24385 whole entry partner): as the sequence (P24385 whole entry partner) above

Row | Compound | Ki (CDK4/Cyclin D1) | Ki (CDK6/Cyclin D3) | IC50 (CDK4) | IC50 (CDK6)
1 | CS(=O)(=O)N1CC[C@@H](Nc2ncc(Cl)c(-c3cc(F)c4ncn(C5CCOC5)c4c3)n2)[C@H](O)C1 (some centres unmarked) [Example A14] | 0.5 nM | 4.6 nM |  | 
2 | CC(C)n1cnc2c(Cl)cc(-c3nc(N[C@@H]4CCN(S(C)(=O)=O)C[C@H]4O)ncc3Cl)cc21 [Example A16] | 0.2 nM | 2.7 nM | 25.7 nM | 98.1 nM
3 | CC(C)n1c(C(C)(C)O)nc2c(F)cc(-c3nc(N[C@H]4CCOC[C@H]4O)ncc3Cl)cc21 [Example A35] | 1.5 nM | 58.9 nM | 124 nM | 967 nM

These reach a lower Ki (CDK6/Cyclin D3). Values come first.

Row | Ki (CDK4/Cyclin D1) | Ki (CDK6/Cyclin D3) | IC50 (CDK4) | IC50 (CDK6) | Compound
4 | 0.3 nM | 2.4 nM |  |  | CS(=O)(=O)N1CC[C@@H](Nc2ncc(Cl)c(-c3cc(F)c4ncn(C5CC5)c4c3)n2)[C@H](O)C1 [Example A15]
5 | 0.2 nM | 2.3 nM | 25 nM | 77.2 nM | CC1(C)COCc2nc3c(F)cc(-c4nc(N[C@@H]5CCN(S(C)(=O)=O)C[C@H]5O)ncc4F)cc3n21 [Example A18]
6 |  | 1.3 nM | 13.3 nM | 30.6 nM | CC(C)c1c2cc(-c3nc(N[C@@H]4CCN(S(C)(=O)=O)C[C@H]4O)ncc3Cl)cc(F)c2nn1C [Example A25]
7 | 0.1 nM | 0.4 nM | 9.9 nM | 13.4 nM | CCC1COCc2nc3c(F)cc(-c4nc(N[C@@H]5CCN(S(C)(=O)=O)C[C@H]5O)ncc4F)cc3n21 (some centres unmarked) [Example A17]
